Source: patent publication US20140058103A1, “Inhibitors of PI3K-Delta and Methods of Their Use and Manufacture” (Exelixis, Inc., priority 2010, published 2014)

target: PI3K delta (Homo sapiens, UniProt O00329); assay: Luciferase-coupled chemiluminescence kinase assay (ATP consumption, KinaseGlo); assay type: biochemical
In short: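 Compound, kinase and ATP (≤ KM) reacted 2 h at ambient temperature, then remaining ATP quantified with luciferase-luciferin (KinaseGlo) luminescence as percent consumed.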

Sequence of PI3K delta (O00329 whole entry): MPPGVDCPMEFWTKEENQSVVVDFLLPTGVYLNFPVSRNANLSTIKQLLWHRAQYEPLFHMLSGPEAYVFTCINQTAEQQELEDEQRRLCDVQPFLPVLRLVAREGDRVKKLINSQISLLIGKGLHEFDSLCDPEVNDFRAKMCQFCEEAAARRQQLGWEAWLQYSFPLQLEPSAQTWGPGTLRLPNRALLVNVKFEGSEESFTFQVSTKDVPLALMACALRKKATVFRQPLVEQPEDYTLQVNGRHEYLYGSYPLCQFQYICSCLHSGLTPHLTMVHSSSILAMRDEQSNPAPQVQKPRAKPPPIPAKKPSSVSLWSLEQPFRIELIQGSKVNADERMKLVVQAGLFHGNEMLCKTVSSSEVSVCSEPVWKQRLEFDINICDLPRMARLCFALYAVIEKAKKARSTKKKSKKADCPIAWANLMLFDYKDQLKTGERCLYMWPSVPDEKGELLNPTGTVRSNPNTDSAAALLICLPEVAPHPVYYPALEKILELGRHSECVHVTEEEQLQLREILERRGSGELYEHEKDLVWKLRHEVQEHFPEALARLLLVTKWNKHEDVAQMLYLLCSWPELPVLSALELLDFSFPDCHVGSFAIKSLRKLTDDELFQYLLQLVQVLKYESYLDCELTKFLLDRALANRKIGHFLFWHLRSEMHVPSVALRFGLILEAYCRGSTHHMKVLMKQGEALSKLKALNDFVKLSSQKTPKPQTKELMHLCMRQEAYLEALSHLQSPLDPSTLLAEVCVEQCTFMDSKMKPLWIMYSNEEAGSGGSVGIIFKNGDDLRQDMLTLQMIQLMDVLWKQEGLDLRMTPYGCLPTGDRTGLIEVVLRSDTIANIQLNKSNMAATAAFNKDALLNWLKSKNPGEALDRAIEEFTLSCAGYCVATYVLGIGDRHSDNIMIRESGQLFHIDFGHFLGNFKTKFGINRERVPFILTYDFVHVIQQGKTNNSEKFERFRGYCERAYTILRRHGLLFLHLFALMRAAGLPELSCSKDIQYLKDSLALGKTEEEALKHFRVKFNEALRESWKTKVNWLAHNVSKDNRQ
Sequence of PI3K delta (P27986 whole entry partner): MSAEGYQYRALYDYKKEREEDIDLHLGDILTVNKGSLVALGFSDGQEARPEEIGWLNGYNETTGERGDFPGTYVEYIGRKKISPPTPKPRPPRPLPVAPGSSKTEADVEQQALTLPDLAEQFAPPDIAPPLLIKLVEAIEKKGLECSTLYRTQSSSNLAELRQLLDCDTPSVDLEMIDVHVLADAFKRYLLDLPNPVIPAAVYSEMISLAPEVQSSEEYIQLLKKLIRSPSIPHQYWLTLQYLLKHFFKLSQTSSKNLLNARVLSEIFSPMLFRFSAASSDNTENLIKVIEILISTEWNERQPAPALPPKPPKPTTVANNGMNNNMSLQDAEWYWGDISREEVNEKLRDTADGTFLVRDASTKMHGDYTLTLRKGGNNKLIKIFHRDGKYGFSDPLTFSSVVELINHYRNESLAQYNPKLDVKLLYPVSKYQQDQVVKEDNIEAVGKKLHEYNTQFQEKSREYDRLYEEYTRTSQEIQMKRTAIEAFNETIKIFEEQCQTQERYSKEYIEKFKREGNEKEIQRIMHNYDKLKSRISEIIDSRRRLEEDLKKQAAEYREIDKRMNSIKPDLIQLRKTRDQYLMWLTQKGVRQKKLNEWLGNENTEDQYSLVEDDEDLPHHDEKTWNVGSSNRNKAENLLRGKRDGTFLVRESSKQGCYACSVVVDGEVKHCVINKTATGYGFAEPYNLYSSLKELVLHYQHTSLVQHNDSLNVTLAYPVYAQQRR

SMILES | IC50 [nM]
Cn1c(-c2cocn2)nc2c(N3CCC(n4c(=O)[nH]c5ccccc54)CC3)ncnc21 [Compound 179, 1-{1-[9-methyl-8-(1,3-oxazol-4-yl)-9H-purin-6-yl]piperidin-4-yl}-1,3-dihydro-2H-benzimidazol-2-one] | 500 to 1500
CCn1cc(-c2nc3c(N4CCC5(CC4)C(=O)Nc4ccccc45)ncnc3n2CC)cn1 [Compound 250, 1′-[9-ethyl-8-(1-ethyl-1H-pyrazol-4-yl)-9H-purin-6-yl]spiro[indole-3,4′-piperidin]-2(1H)-one] | < 50
Cn1c(C(=O)NCCc2ccccc2)nc2c(N3CCC4(CC3)C(=O)Nc3ccccc34)ncnc21 [Compound 395, 9-methyl-6-(2-oxo-1,2-dihydro-1′H-spiro[indole-3,4′-piperidin]-1′-yl)-N-(2-phenylethyl)-9H-purine-8-carboxamide] | 500 to 1500
Cn1cc(-c2nc3c(N4CCN(c5cccc(OCC(=O)N6CCCCC6)c5)CC4)ncnc3n2C)cn1 [Compound 357, 9-methyl-8-(1-methyl-1H-pyrazol-4-yl)-6-(4-{3-[(2-oxo-2-piperidin-1-ylethyl)oxy]phenyl}piperazin-1-yl)-9H-purine] | 500 to 1500
Cn1c(C(=O)NCC2CC2)nc2c(N3CCC4(CC3)CC(=O)Nc3ccccc3O4)ncnc21 [Compound 170, N-(cyclopropylmethyl)-9-methyl-6-(4-oxo-4,5-dihydro-1′H,3H-spiro[1,5-benzoxazepine-2,4′-piperidin]-1′-yl)-9H-purine-8-carboxamide] | 250 to 500
COc1ccccc1CNC(=O)c1nc2c(N3CCC(n4c(=O)[nH]c5ccccc54)CC3)ncnc2n1C [Compound 56, 9-methyl-N-{[2-(methyloxy)phenyl]methyl}-6-[4-(2-oxo-2,3-dihydro-1H-benzimidazol-1-yl)piperidin-1-yl]-9H-purine-8-carboxamide] | 250 to 500
Cn1c(C(=O)NCc2ccco2)nc2c(N3CCC(n4c(=O)[nH]c5ccccc54)CC3)ncnc21 [Compound 46, N-(furan-2-ylmethyl)-9-methyl-6-[4-(2-oxo-2,3-dihydro-1H-benzimidazol-1-yl)piperidin-1-yl]-9H-purine-8-carboxamide] | 50 to 250
Cn1c(C(=O)NCCO)nc2c(N3CCC4(CC3)C(=O)Nc3ccccc34)ncnc21 [Compound 25, N-(2-hydroxyethyl)-9-methyl-6-(2-oxo-1,2-dihydro-1′H-spiro[indole-3,4′-piperidin]-1′-yl)-9H-purine-8-carboxamide] | 250 to 500
C=C(C)c1cn(-c2nc3c(N4CCC(n5c(=O)[nH]c6ccccc65)CC4)ncnc3n2C)cn1 [Compound 167, 1-(1-{9-methyl-8-[4-(1-methylethenyl)-1H-imidazol-1-yl]-9H-purin-6-yl}piperidin-4-yl)-1,3-dihydro-2H-benzimidazol-2-one] | < 50
Cn1c(C(=O)NCCc2ccccn2)nc2c(N3CCC(n4c(=O)[nH]c5ccccc54)CC3)ncnc21 [Compound 51, 9-methyl-6-[4-(2-oxo-2,3-dihydro-1H-benzimidazol-1-yl)piperidin-1-yl]-N-(2-pyridin-2-ylethyl)-9H-purine-8-carboxamide] | 500 to 1500
CCn1c(C(=O)NCC2CCC2)nc2c(N3CCC(n4c(=O)[nH]c5ccccc54)CC3)ncnc21 [Compound 185, N-(cyclobutylmethyl)-9-ethyl-6-[4-(2-oxo-2,3-dihydro-1H-benzimidazol-1-yl)piperidin-1-yl]-9H-purine-8-carboxamide] | < 50
Cn1cc(-c2nc3c(N4CCC(C#N)(c5ccccc5)CC4)ncnc3n2C)cn1 [Compound 263, 1-[9-Methyl-8-(1-methyl-1H-pyrazol-4-yl)-9H-purin-6-yl]-4-phenylpiperidine-4-carbonitrile] | 50 to 250
CCCNC(=O)c1nc2c(N3CCC(n4c(=O)[nH]c5ccccc54)CC3)ncnc2n1C [Compound 69, 9-methyl-6-[4-(2-oxo-2,3-dihydro-1H-benzimidazol-1-yl)piperidin-1-yl]-N-propyl-9H-purine-8-carboxamide] | 50 to 250
CCc1nc2c(N3CCC(n4c(=O)[nH]c5ccccc54)CC3)ncnc2n1C [Compound 92, 1-[1-(8-ethyl-9-methyl-9H-purin-6-yl)piperidin-4-yl]-1,3-dihydro-2H-benzimidazol-2-one] | 500 to 1500
Cn1c(C(=O)NCC(C)(C)O)nc2c(N3CCC(n4c(=O)[nH]c5ccccc54)CC3)ncnc21 [Compound 273, N-(2-hydroxy-2-methylpropyl)-9-methyl-6-[4-(2-oxo-2,3-dihydro-1H-benzimidazol-1-yl)piperidin-1-yl]-9H-purine-8-carboxamide] | < 50
Cc1ncc(-c2nc3c(N4CCC(n5c(=O)[nH]c6ncccc65)CC4)ncnc3n2C)n1C [Compound 336, 1-{1-[8-(1,2-dimethyl-1H-imidazol-5-yl)-9-methyl-9H-purin-6-yl]piperidin-4-yl)-1,3-dihydro-2H-imidazo[4,5-b]pyridin-2-one] | < 50
Cn1c(C(=O)NCc2ccc(F)cc2F)nc2c(N3CCC(n4c(=O)[nH]c5ccccc54)CC3)ncnc21 [Compound 66, N-[(2,4-difluorophenyl)methyl]-9-methyl-6-[4-(2-oxo-2,3-dihydro-1H-benzimidazol-1-yl)piperidin-1-yl]-9H-purine-8-carboxamide] | 500 to 1500
CNc1ccc(-c2nc3c(N4CCC(n5c(=O)[nH]c6ncccc65)CC4)ncnc3n2C)cn1 [Compound 354, 1-(1-{9-methyl-8-[6-(methylamino)pyridin-3-yl]-9H-purin-6-yl}piperidin-4-yl)-1,3-dihydro-2H-imidazo[4,5-b]pyridin-2-one] | < 50
Cn1c(C(=O)NCC2CC2)nc2c(N3CCC(n4c(=S)[nH]c5ccccc54)CC3)ncnc21 [Compound 169, N-(cyclopropylmethyl)-9-methyl-6-[4-(2-thioxo-2,3-dihydro-1H-benzimidazol-1-yl)piperidin-1-yl]-9H-purine-8-carboxamide] | 50 to 250
Cn1c(C(=O)NCCc2ccc(Cl)cc2)nc2c(N3CCC(n4c(=O)[nH]c5ccccc54)CC3)ncnc21 [Compound 63, N-[2-(4-chlorophenyl)ethyl]-9-methyl-6-[4-(2-oxo-2,3-dihydro-1H-benzimidazol-1-yl)piperidin-1-yl]-9H-purine-8-carboxamide] | 500 to 1500
CN(C)C1CN(C(=O)c2nc3c(N4CCC5(CC4)C(=O)NCC5c4ccccc4)ncnc3n2C)C1 (stereo not drawn) [Compound 10] | 500 to 1500
O=C(NCC1CC1)c1nc2c(N3CCC(n4c(=O)[nH]c5ccccc54)CC3)ncnc2n1C1CC1 [Compound 171, 9-Cyclopropyl-N-(cyclopropylmethyl)-6-[4-(2-oxo-2,3-dihydro-1H-benzimidazol-1-yl)piperidin-1-yl]-9H-purine-8-carboxamide] | 50 to 250
COc1ccc(-c2nc3c(N4CCC(n5c(=O)[nH]c6ccccc65)CC4)ncnc3n2C)cn1 [Compound 299, 1-(1-{9-methyl-8-[6-(methyloxy)pyridin-3-yl]-9H-purin-6-yl}piperidin-4-yl)-1,3-dihydro-2H-benzimidazol-2-one] | < 50
COC(=O)c1nc2c(N3CCC(n4c(=O)[nH]c5ccccc54)CC3)ncnc2n1C [Compound 78, Methyl 9-methyl-6-[4-(2-oxo-2,3-dihydro-1H-benzimidazol-1-yl)piperidin-1-yl]-9H-purine-8-carboxylate] | 500 to 1500
